These results are taken from patent US20240010998A1, “FLAVONE 4'-O-METHYLTRANSFERASE GENE AND USE FOR SAME” (SUNTORY HOLDINGS LIMITED, priority 2020, published 2024).

Data set [1] can be described thus: Simulation of flavone C-glycoside copigment effect with anthocyanin (malvin): absorption spectrum. The format is physicochemical. Conditions: for Absorption maximum of malvin solution upon addition of flavone C-glycoside (λmax): flavone C-glycoside added at 10-equivalent molar concentration to 0.5 mM malvin. The protocol:
An anthocyanin (malvin) and flavone C-glycoside were prepared to simulate the copigment effect of the flavone C-glycoside on malvin. The malvin (malvidin 3,5-diglucoside) and flavone C-glycosides (isovitexin (apigenin 6-C-glucoside), isoorientin (luteolin 6-C-glucoside) and swertisin (genkwanin 6-C-glucoside) used in the experiments were purchased from Nacalai Tesque, Inc. Embigenin (7,4′-dimethoxyisovitexin) was prepared by artificial organic synthesis from isovitexin. Each flavone C-glycoside (isovitexin, isoorientin, swertisin or embigenin) was added to the malvin at 10-equivalent molar concentration in a buffering solution at pH 5.0, and the absorption spectrum was measured. The malvin concentration was 0.5 mM.

In a further data set the test system is DN144 (IjFn-4′OMT). Kind of data set: Enzyme activity measurement with crude protein solution extract from E. coli expressing DN144. The format is biochemical, fringed iris (Iris japonica). Conditions: flavone substrate; for Produced compound: SAM, 30 minutes at 30° C., HPLC detection at 330 nm. The protocol:
With DN144 as a candidate protein having activity of transferring a methyl group to the 4′-position hydroxyl group of flavone C-glycoside, and using pET15b (Novagen), an E. coli expression vector pSPB7942 containing the full-length of DN144 was constructed according to the manufacturer's recommended protocol.
Vector pSPB7942 was introduced into E. coli BL21(DE3) (New England Biolabs Japan Inc) by the manufacturer's recommended protocol, to obtain E. coli transformants. The E. coli were cultured using an Overnight Express Autoinduction System 1 (Novagen), according to the manufacturer's recommended protocol. The E. coli transformants were cultured at 37° C. (approximately 4 hours) with 2 mL of prepared culture solution, to an OD600 value of 0.5. The E. coli solution was added as a preculturing solution to 50 mL of culture solution, and main culturing was carried out for two nights at 16° C. The E. coli solution cultured for two nights was centrifuged (3,000 rpm, 4° C., 15 minutes), and the collected cells were suspended in sonic buffer (composition: 40 mM KPB (pH7.5), 1 mM dithiothreitol. 50 μM amidinophenylmethanesulfonyl fluoride hydrochloride, 500 μM ethylenediaminetetraacetic acid. 2 mM MgCl2, 1 μM S-adenosylmethionine (SAM)). A 5 mL portion of sonic buffer was added for each 1 g of E. coli. The suspended E. coli cells were crushed by ultrasonic treatment and then centrifuged (15,000 rpm, 4° C., 10 minutes), and the supernatant was recovered. The supernatant was used as a crude protein solution extract from E. coli expressing DN144. A TOMY MX-307 (rotor: AR015-24) was used for centrifugal separation (Tomy Seiko Co., Ltd.).
The substrates used for activity measurement were apigenin, apigenin 7-glucoside, isovitexin 2″-rhamnoside, saponarin (isovitexin 4′-glucoside), swertisin, luteolin, luteolin 7-glucoside, isoorientin, swertiajapanin (isoorientin 7-methyl ether), delphinidin 3-glucoside, delphinidin 3,5-diglucoside and malvidin 3,5-diglucoside. A mixture of 8 μL of each 1 mM substrate (50% acetonitrile aqueous solution containing 0.1% TFA), 20 μL of 10 mM SAM, 10 μL of 1 M KPB (pH 7.5) and 20 μL of 10 mM MgCl2 adjusted to 58 μL was kept at 30° C. for 10 minutes, and then 42 μL of crude protein solution extract from DN144-expressing E. coli was added for enzyme reaction (30 minutes at 30° C.). Next, 100 μL of stop buffer (aqueous 90% acetonitrile solution containing TFA) was added to stop the enzyme reaction, and the enzyme reaction solution was analyzed by high-performance liquid chromatography (LC-2030C by Shimadzu Corp.). Detection was at 330 nm using a Shimadzu PDA SPD-M20A as the detector. The column used as a Shim-Pack FC-ODS 150 mm*4.6 min (Shimadzu GLC). Elution was performed using solution A (0.1% TFA aqueous solution) and solution B (aqueous 90% acetonitrile solution containing 0.1% TFA). The elution was with a 20-minute linear concentration Gradient from a 9:1 mixture to a 8:2 mixture, a 15-minute linear concentration gradient from a 8:2. mixture to a 2:8 mixture and a 5-minute linear concentration gradient from a 2:8 mixture to a 0:10 mixture, followed by elution with a 0:10 mixture for 1 minute. The flow rate was 0.6 mL/min. As a control, the same experiment was carried out using a crude protein solution extract from E. coli in which pET15b vector without the insert had been introduced. As a result, compounds were detected in the enzyme reaction solutions obtained by reacting the 10 different flavones with the crude protein solution extract from the DN144-expressing E. coli. […] With reaction of the 3 different anthocyanins, no peaks were detected other than for the substrates in the enzyme reaction solution. When enzyme reaction was conducted using an anthocyanin substrate, the enzyme reaction conditions were 30° C., 15 minutes, and an aqueous 90% acetonitrile solution containing 0.1% TFA and 0.24 N hydrochloric acid was used as the stop buffer. […]

As to `COc1ccc(-c2cc(=O)c3c(O)c([C@@H]4O[C@H](CO)[C@@H](O)[C@H](O)[C@H]4O)c(OC)cc3o2)cc1` [Embigenin, 7,4′-dimethoxyisovitexin], in data set [1] (10-equivalent flavone C-glycoside, 0.5 mM malvin, pH 5.0), the “Copigment effect with respect to malvin (absorbance increase, shift of absorption maximum toward long wavelength end)” value is recorded as “highest copigment effect”. Also, in data set [1] (buffering solution pH 5.0), the “Absorption maximum of malvin solution upon addition of flavone C-glycoside (λmax)” value is 581 nm.

In the case of `O=c1cc(-c2ccc(O)cc2)oc2cc(O)c([C@@H]3O[C@H](CO)[C@@H](O)[C@H](O)[C@H]3O)c(O)c12` [Isovitexin, apigenin 6-C-glucoside], the Produced compound entry in the data set on DN144 (IjFn-4′OMT) is listed as “Isocytisoside”; with DN144 (IjFn-4′OMT) (listed as isovitexin) it was “conversion to isocytisoside was confirmed”. The “Absorption maximum of malvin solution upon addition of flavone C-glycoside (λmax)” value in data set [1] (buffering solution pH 5.0) is given as 578 nm. Take `COc1cc2oc(-c3ccc(O)cc3)cc(=O)c2c(O)c1[C@@H]1O[C@H](CO)[C@@H](O)[C@H](O)[C@H]1O` [Swertisin, genkwanin 6-C-glucoside]: the Produced compound entry with DN144 (IjFn-4′OMT) is “Embigenin”; with DN144 (IjFn-4′OMT) (listed as swertisin), “conversion to embigenin was confirmed”. For the same compound, the “Absorption maximum of malvin solution upon addition of flavone C-glycoside (λmax)” value in data set [1] (buffering solution pH 5.0) is reported as 579 nm. With isovitexin 2″-rhamnoside, the “Methyltransferase activity of DN144 for the substrate” value with DN144 (IjFn-4′OMT) is “strong methyltransferase activity”. Same read-out and setting: to `COc1cc2oc(-c3ccc(O)c(O)c3)cc(=O)c2c(O)c1[C@@H]1O[C@H](CO)[C@@H](O)[C@H](O)[C@H]1O` [Swertiajaponin, luteolin 7-methyl-6-C-glucoside] belongs “strong methyltransferase activity”. For the compound `COc1cc(-c2[o+]c3cc(O)cc(O[C@@H]4O[C@H](CO)[C@@H](O)[C@H](O)[C@H]4O)c3cc2O[C@@H]2O[C@H](CO)[C@@H](O)[C@H](O)[C@H]2O)cc(OC)c1O` [Malvin, malvidin 3,5-diglucoside], the “Absorption maximum of malvin solution (λmax)” value in data set [1] (malvin alone, 0.5 mM, buffering solution pH 5.0) is 529 nm. In the case of `O=c1cc(-c2ccc(O)c(O)c2)oc2cc(O)c([C@@H]3O[C@H](CO)[C@@H](O)[C@H](O)[C@H]3O)c(O)c12` [Isoorientin, luteolin 6-C-glucoside], the “Methyltransferase activity of DN144 for the substrate” value with DN144 (IjFn-4′OMT) was “strong methyltransferase activity”. Also, the “Absorption maximum of malvin solution upon addition of flavone C-glycoside (λmax)” value in data set [1] (buffering solution pH 5.0) is on record as 575 nm.
